# Reference: patent US12202844B2, “MAP4K1 inhibitors” (Blueprint Medicines Corporation, priority 2021, dated 2025)
# Target: T1, MAP4K1 (HPK1) (Homo sapiens, UniProt Q92918)
# T1 construct: purchased Invitrogen
# Experiment: Inhibition of MAP4K1 biochemical enzymatic activity (EZReader 2 electrophoretic mobility shift)
# Conditions: HPK1 (Invitrogen), S6K2tide 1.5 μM, 120 min; ATP 26 μM or 1000 μM (not given)
# Text: MAP4K1 (HPK1) and relevant off-target enzymatic activity was monitored using the Perkin Elmer electrophoretic mobility shift technology platform—the EZReader 2. […] Within the linear, steady-state phase of the kinase enzymatic reaction, the mixed pool of phosphorylated (product) and non-phosphorylated (substrate) peptides was passed through the microfluidic system of the PerkinElmer EZ Reader 2, under an applied electric potential difference. The presence of the phosphate group on the product peptide provided a difference in mass and charge between that of the substrate peptide, resulting in a separation of the substrate and product pools in the sample (Perrin et al. 2010). As the product and substrate peptide mixture passes the lasers within the instrument, these pools are detected (λex=488 nm, λem=568 nm) and resolved as separate peaks. The ratio between these peaks reflects the activity of the compound at that concentration, in that well, under those conditions.
# Inhibitors were dissolved in 100% DMSO at a stock concentration of 10 mM. A 100×, 10-point, 4-fold serial dilution of each inhibitor was created in 100% DMSO either manually or on a Hamilton STAR liquid handler, starting at a relevant concentration, usually 1 mM. A volume of 0.130 μL of each concentration was transferred to the relevant wells of a 384-well plate (Greiner 781 201) in duplicate using a TTPLabtech Mosquito nano-litre dispenser. Using a Multidrop Combi, the remaining constituents of the kinase reaction were added to the 130 nL of dosed compound as follows (see table below for final reaction details):
# Enzyme activity assays at the ^APPKM for ATP or 1 mM ATP: In each well of a 384-well plate, 0.1-15 nM of untreated enzyme was incubated in a total of 13 μL of buffer (100 mM HEPES pH 7.5, 0.015% Brij 35, 10 mM MgCl2, 1 mM DTT) with 1.5 μM fluorescent peptid and 20-1000 μM ATP, at 25° C., for 60-180 minutes in the presence or absence of a dosed concentration series of compound (1% DMSO final concentration). The kinase reactions were stopped by the addition of 70 μl of Stop buffer (100 mM HEPES pH 7.5, 0.015% Brij 35, 35 mM EDTA and 0.2% of Coating Reagent 3 (Caliper Lifesciences)). The plates were read on a Caliper EZReader 2 as described above.
# T1 sequence (Q92918 whole entry): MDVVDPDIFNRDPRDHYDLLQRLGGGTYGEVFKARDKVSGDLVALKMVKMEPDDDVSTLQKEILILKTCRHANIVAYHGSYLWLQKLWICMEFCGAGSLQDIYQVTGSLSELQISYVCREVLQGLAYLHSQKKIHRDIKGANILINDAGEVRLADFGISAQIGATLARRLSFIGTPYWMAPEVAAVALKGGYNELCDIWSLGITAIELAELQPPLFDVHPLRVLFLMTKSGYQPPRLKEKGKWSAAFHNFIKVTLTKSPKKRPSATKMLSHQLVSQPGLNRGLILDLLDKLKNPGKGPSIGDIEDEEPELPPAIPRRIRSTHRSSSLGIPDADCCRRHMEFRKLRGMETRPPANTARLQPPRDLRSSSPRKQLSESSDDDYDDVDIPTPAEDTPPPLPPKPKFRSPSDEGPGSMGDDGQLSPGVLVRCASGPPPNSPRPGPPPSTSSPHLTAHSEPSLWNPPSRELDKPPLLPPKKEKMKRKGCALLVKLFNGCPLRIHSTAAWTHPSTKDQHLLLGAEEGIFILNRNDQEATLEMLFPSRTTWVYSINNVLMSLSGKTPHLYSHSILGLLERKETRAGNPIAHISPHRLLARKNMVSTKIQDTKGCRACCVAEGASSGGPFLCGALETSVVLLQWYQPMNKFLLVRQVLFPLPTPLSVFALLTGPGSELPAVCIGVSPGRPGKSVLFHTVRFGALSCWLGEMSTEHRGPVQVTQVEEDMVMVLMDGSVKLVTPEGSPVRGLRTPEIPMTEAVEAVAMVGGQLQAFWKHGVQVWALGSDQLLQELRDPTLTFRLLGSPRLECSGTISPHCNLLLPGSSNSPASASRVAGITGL
row,SMILES,IC50 [nM]
1,"C[C@@H]1COC(=O)c2ccc(Nc3cc4c(C(C)(C)N)cnc(O[C@H]5C[C@@H](S(C)(=O)=O)C5)c4cn3)nc21 (single isomer, unassigned) [Compound 5]",1.77
2,"CC[C@@](C)(N)c1cnc(O[C@H]2C[C@@H](S(C)(=O)=O)C2)c2cnc(Nc3ccc4c(n3)[C@H](C)COC4=O)cc12 (single isomer, unassigned) [Compound 8]",0.31
3,"CC[C@@](C)(N)c1cnc(O[C@H]2C[C@@H](S(C)(=O)=O)C2)c2cnc(Nc3ccc4c(n3)[C@H](C)COC4=O)cc12 (single isomer, unassigned) [Compound 9]",0.92
4,"C[C@@H]1OC(=O)c2ccc(Nc3cc4c(C(C)(C)N)cnc(O[C@@H](C)CCS(C)(=O)=O)c4cn3)nc2[C@H]1C (single isomer, unassigned) [Compound 19]",0.9
5,"CC[C@@](C)(N)c1cnc(OCCCS(C)(=O)=O)c2cnc(Nc3ccc4c(n3)[C@H](C)[C@H](C)OC4=O)cc12 (single isomer, unassigned) [Compound 21]",0.18
6,"C[C@H]1OC(=O)c2ccc(Nc3cc4c(C(C)(C)N)cnc(O[C@H]5C[C@@H](S(C)(=O)=O)C5)c4cn3)nc2C12CC2 (single isomer, unassigned) [Compound 24]",0.15
7,"C[C@@H]1COC(=O)c2ccc(Nc3cc4c(C(C)(C)N)cnc(O[C@H]5C[C@@H](S(=O)(=O)C6CC6)C5)c4cn3)nc21 (single isomer, unassigned) [Compound 25]",1.53
8,"C[C@@H]1[C@@H](Oc2ncc(C(C)(C)N)c3cc(Nc4ccc5c(n4)[C@@H](C)[C@H](C)OC5=O)ncc23)C[C@H]1S(C)(=O)=O (single isomer, unassigned) [Compound 30]",0.79
9,"C[C@@H]1[C@@H](Oc2ncc(C(C)(C)N)c3cc(Nc4ccc5c(n4)[C@@H](C)[C@H](C)OC5=O)ncc23)C[C@H]1S(C)(=O)=O (single isomer, unassigned) [Compound 31]",0.2
10,"C[C@@H]1OC(=O)c2ccc(Nc3cc4c(C(C)(C)N)cnc(O[C@@H]5CC[C@@H](S(C)(=O)=O)C5)c4cn3)nc2[C@H]1C (single isomer, unassigned) [Compound 34]",0.56
11,"C[C@@H]1OC(=O)c2ccc(Nc3cc4c(C(C)(C)N)cnc(O[C@@H]5CC[C@@H](S(C)(=O)=O)C5)c4cn3)nc2[C@H]1C (single isomer, unassigned) [Compound 35]",0.48
12,"C[C@@H]1c2nc(Nc3cc4c(C(C)(C)N)cnc(OC[C@H]5CCS(=O)(=O)C5)c4cn3)ccc2C(=O)OC1(C)C (single isomer, unassigned) [Compound 36]",0.54
13,"C[C@@H]1c2nc(Nc3cc4c(C(C)(C)N)cnc(OC[C@H]5CCS(=O)(=O)C5)c4cn3)ccc2C(=O)OC1(C)C (single isomer, unassigned) [Compound 37]",0.44
14,"C[C@@H]1OC(=O)c2ccc(Nc3cc4c(C(C)(C)N)cnc(O[C@@H]5CC[C@H](S(C)(=O)=O)C5)c4cn3)nc2[C@H]1C (single isomer, unassigned) [Compound 40]",0.86
15,"C[C@@H]1OC(=O)c2ccc(Nc3cc4c(C(C)(C)N)cnc(O[C@@H]5CC[C@H](S(C)(=O)=O)C5)c4cn3)nc2[C@H]1C (single isomer, unassigned) [Compound 41]",0.68
16,"CC[C@@](C)(N)c1cnc(OCCCS(C)(=O)=O)c2cnc(Nc3ccc4c(n3)C3(CC3)[C@H](C)OC4=O)cc12 (single isomer, unassigned) [Compound 43]",0.12

# Other lines, results leading:
row,IC50 [nM],SMILES
1,0.2,"C[C@H](CCS(C)(=O)=O)Oc1ccc(C(C)(C)N)c2cc(Nc3ccc4c(n3)[C@@H](C)C(C)(C)OC4=O)ncc12 (single isomer, unassigned) [Compound 45]"
2,0.71,"C[C@H](CCS(C)(=O)=O)Oc1ccc(C(C)(C)N)c2cc(Nc3ccc4c(n3)[C@@H](C)C(C)(C)OC4=O)ncc12 (single isomer, unassigned) [Compound 46]"
3,0.82,"C[C@H](CCS(C)(=O)=O)Oc1ncc(C(C)(C)N)c2cc(Nc3ccc4c(n3)[C@@H](C)C(C)(C)OC4=O)ncc12 (single isomer, unassigned) [Compound 54]"
4,0.21,"CC[C@@](C)(N)c1cnc(OCCCS(C)(=O)=O)c2cnc(Nc3ccc4c(n3)C(C)(C)[C@H](C)OC4=O)cc12 (single isomer, unassigned) [Compound 56]"
5,0.1,"CC[C@@](C)(N)c1cnc(O[C@H]2C[C@@H](S(C)(=O)=O)C2)c2cnc(Nc3ccc4c(n3)C3(CC3)[C@@H](C)OC4=O)cc12 (single isomer, unassigned) [Compound 58]"
6,0.51,"C[C@H]1[C@H](Oc2ncc(C(C)(C)N)c3cc(Nc4ccc5c(n4)[C@@H](C)C(C)(C)OC5=O)ncc23)C[C@@H]1S(C)(=O)=O (single isomer, unassigned) [Compound 68]"
7,0.23,"C[C@@H]1[C@H](S(C)(=O)=O)C[C@H]1Oc1ncc(C(C)(C)N)c2cc(Nc3ccc4c(n3)[C@@H](C)C(C)(C)OC4=O)ncc12 (single isomer, unassigned) [Compound 70]"
8,0.28,"C[C@@H]1[C@H](S(C)(=O)=O)C[C@H]1Oc1ncc(C(C)(C)N)c2cc(Nc3ccc4c(n3)[C@@H](C)C(C)(C)OC4=O)ncc12 (single isomer, unassigned) [Compound 71]"
9,0.92,"CC[C@@H](CCS(C)(=O)=O)Oc1ncc([C@](C)(N)CC)c2cc(Nc3ccc4c(n3)[C@@H](C)[C@H](C)OC4=O)ncc12 (single isomer, unassigned) [Compound 83]"
10,0.74,"CC[C@@H](CCS(C)(=O)=O)Oc1ncc([C@](C)(N)CC)c2cc(Nc3ccc4c(n3)[C@@H](C)[C@H](C)OC4=O)ncc12 (single isomer, unassigned) [Compound 84]"
11,0.77,"CC[C@@](C)(N)c1cnc(O[C@H](C)CCS(C)(=O)=O)c2cnc(Nc3ccc4c(n3)C(C)(C)[C@H](C)OC4=O)cc12 (single isomer, unassigned) [Compound 96]"
12,2.11,"CC[C@@](C)(N)c1cnc(O[C@@H](C)CCS(C)(=O)=O)c2cnc(Nc3ccc4c(n3)C(C)(C)[C@H](C)OC4=O)cc12 (single isomer, unassigned) [Compound 97]"
13,0.48,"CCS(=O)(=O)[C@H]1C[C@@H](Oc2ncc([C@H](N)C3CC3)c3cc(Nc4ccc5c(n4)[C@@H](C)C(C)(C)OC5=O)ncc23)C1 (single isomer, unassigned) [Compound 101]"
14,0.22,"CC[C@@](C)(N)c1cnc(O[C@@H](C)CCS(=O)(=O)C2CC2)c2cnc(Nc3ccc4c(n3)[C@@H](C)[C@H](C)OC4=O)cc12 (single isomer, unassigned) [Compound 106]"
15,0.26,"CC[C@@](C)(N)c1cnc(O[C@@H](C)CCS(=O)(=O)C2CC2)c2cnc(Nc3ccc4c(n3)[C@@H](C)[C@H](C)OC4=O)cc12 (single isomer, unassigned) [Compound 107]"
16,0.22,"C[C@H](C[C@@H](C)S(C)(=O)=O)Oc1ncc([C@@](C)(N)C2CC2)c2cc(Nc3ccc4c(n3)CC(C)(C)OC4=O)ncc12 (single isomer, unassigned) [Compound 108]"
17,0.15,"C[C@H](C[C@@H](C)S(C)(=O)=O)Oc1ncc([C@@](C)(N)C2CC2)c2cc(Nc3ccc4c(n3)[C@@H](C)[C@H](C)OC4=O)ncc12 (single isomer, unassigned) [Compound 109]"
18,0.12,"CCS(=O)(=O)C[C@H]1C[C@H](Oc2ncc(C(C)(C)N)c3cc(Nc4ccc5c(n4)[C@@H](C)C(C)(C)OC5=O)ncc23)C1 (single isomer, unassigned) [Compound 111]"
19,0.26,"CCC[C@@](C)(N)c1cnc(O[C@H](C)C[C@@H](C)S(C)(=O)=O)c2cnc(Nc3ccc4c(n3)CC(C)(C)OC4=O)cc12 (single isomer, unassigned) [Compound 124]"
20,0.18,"CCC[C@@](C)(N)c1cnc(O[C@H](C)C[C@@H](C)S(C)(=O)=O)c2cnc(Nc3ccc4c(n3)[C@@H](C)[C@H](C)OC4=O)cc12 (single isomer, unassigned) [Compound 125]"
21,0.22,"CC[C@@](C)(N)c1cnc(O[C@H](C)C[C@@H](C)S(C)(=O)=O)c2cnc(Nc3ccc4c(n3)C(C)(C)[C@H](C)OC4=O)cc12 (single isomer, unassigned) [Compound 130]"
22,1.94,"CCS(=O)(=O)C[C@H](C)[C@@H](C)Oc1ncc(C(C)(C)N)c2cc(Nc3ccc4c(n3)[C@@H](C)C(C)(C)OC4=O)ncc12 (single isomer, unassigned) [Compound 131]"
23,0.21,"C[C@H](C[C@@H](C)S(C)(=O)=O)Oc1ncc([C@@](C)(N)C2CC2)c2cc(Nc3ccc4c(n3)[C@@H](C)C(C)(C)OC4=O)ncc12 (single isomer, unassigned) [Compound 137]"
